The values that follow come from patent US12605468B2, “Oxazine-based fluorophore compounds for nerve-specific imaging” (Oregon Health & Science University, priority 2020, dated 2026).

The subject of the first series is nerve.
Assay: not given
The settings on record: Park et al. Theranostics 4, 823-833 (2014); cited from earlier work.
For the compound `CC/N=c1/cc2oc3cc(NCC)c(C)cc3nc-2cc1C` [Oxazine 4], the nerve-specificity entry is listed as “high nerve-specificity”.

Test system in a further series: not listed separately
Description: Experimental LogD measurement (1-octanol / PBS buffer partition, absorbance readout). The settings on record: pH 7.4, room temperature, read-out: Log D7.4. The series is classed as physicochemical. The protocol: Experimental LogD measurements. Each screening candidate was dissolved in DMSO at a concentration of 10 mM. The stock solution was sampled (2 μL) and added to a 1 mL mixture of 1-octanol and PBS buffer (equal volume). The solution was then vortexed for 30 mins at room temperature before centrifuged at 13,000 rpm for 5 minutes. The PBS buffer and 1-octanol layers were separated and measured for absorbance using a SpectraMax M5 spectrometer with a Microplate reader (Molecular Devices, Sunnyvale, CA). Sample concentration in each phase was then calculated using Beer's Law plots of absorbance versus concentration. The experimental LogD value for each screening candidates was calculated using the equation below.
On to `CCN(CC)c1ccc2nc3ccc(=[N+]4CCC4)cc-3oc2c1` [LGW13-79, 1-(7-(diethylamino)-3H-phenoxazin-3-ylidene)azetidin-1-ium], for which the logD was 0.8.

On to `CCN1CCOc2cc3nc4ccc(=[N+]5CCC5)cc-4oc3cc21` [LGW14-42, 1-(4-ethyl-3,4-dihydro-[1,4]oxazino[2,3-b]phenoxazin-8(2H)-ylidene)azetidin-1-ium], for which the logD came to 0.5. The same measure, in the same setting: to `CN1CCOc2cc3nc4ccc(=[N+]5CCC5)cc-4oc3cc21` [LGW14-47, 1-(4-methyl-3,4-dihydro-[1,4]oxazino[2,3-b]phenoxazin-8(2H)-ylidene)azetidin-1-ium] belongs 0.1.

For `CC/[N+](C)=c1\ccc2nc3ccc(N4CCC4)cc3oc-2c1` [LGW14-51, (E)-N-(7-(azetidin-1-yl)-3H-phenoxazin-3-ylidene)-N-methylethanaminium], the logD was determined as 0.5.

For the compound `c1cc2nc3ccc(=[N+]4CCC4)cc-3oc2cc1N1CCC1` [LGW14-53, 1-(7-(azetidin-1-yl)-3H-phenoxazin-3-ylidene)azetidin-1-ium], the logD turned out to be 0.3. For the compound `c1cc2nc3ccc(=[N+]4CCC4)cc-3oc2cc1N1CCCC1` [LGW14-83, 1-(7-(pyrrolidin-1-yl)-3H-phenoxazin-3-ylidene)azetidin-1-ium], the logD is 0.5.
